The source of these data is ChEMBL document CHEMBL1201862, “PubChem BioAssay data set” (2004).

Among the test systems are A498; CAKI-1; HCC 2998; HCT-116; KM12; MDA-MB-231; MDA-N; MOLT-4; NCI-H23; NCI-H460; SF-268; SF-295; SF-539; SK-MEL-5; SNB-19; SR; UACC-62; OVCAR-4; PC-3.
Assay in all cases: inhibition of tumour cell growth, NCI panel, 48 h

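All cell lines were grown in 96-well plates and treated with compound for 48 hours. GI50 is the concentration that inhibits growth by half.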 Active and inactive are the calls of the source. No stated cut-off is given here; in the data, active = GI50 up to about 1.1 µM and inactive = higher.

For the compound `CCOC(=O)C1CCCN1C(=O)c1ccccc1Cl` (configuration not stated), the GI50 in the assay with A498, in the assay with CAKI-1, with HCC 2998, in the assay with HCT-116, in the assay on KM12 and with MDA-MB-231 was > 100 µM (inactive) each time. In addition, the GI50 in the assay with MDA-N, in the assay on MOLT-4, in the assay with NCI-H23, with NCI-H460, with SF-268 and in the assay with SF-295 was > 100 µM (inactive) throughout. The GI50 is > 100 µM (inactive) in the assay with SF-539; > 100 µM (inactive) in the assay on SK-MEL-5; > 100 µM (inactive) in the assay with SNB-19; > 100 µM (inactive) in the assay with SR; 22 µM (inactive) in the assay with UACC-62.
As for `COc1ccc(CCCCl)c(C2=NCCc3cc(OC)c(OC)cc32)c1`, the GI50 with A498 was > 100 µM (inactive); with CAKI-1, 39.7 µM (inactive); in the assay with HCC 2998, 48.4 µM (inactive); in the assay on HCT-116, 33 µM (inactive); with KM12 it was 38.8 µM (inactive); in the assay on MDA-MB-231 it was 69.3 µM (inactive). Further, the GI50 in the assay on MOLT-4 is 41.6 µM (inactive); with NCI-H23, 31.5 µM (inactive); with NCI-H460, 37.8 µM (inactive); in the assay on OVCAR-4, > 100 µM (inactive); in the assay on PC-3, 35.3 µM (inactive); in the assay on SF-268 it was 49.3 µM (inactive). For the same compound, the GI50 in the assay with SF-295 is 48.5 µM (inactive); with SF-539, 79.3 µM (inactive); with SK-MEL-5 it was 26.1 µM (inactive); with SNB-19 it was 30 µM (inactive); with SR it was > 100 µM (inactive); in the assay on UACC-62 it was 32.8 µM (inactive).
For the compound `Cc1ccc2[nH]c3c(c(=O)n(C)c(=O)n3C)c2c1`, the GI50 in the assay on A498, with CAKI-1, in the assay with HCC 2998, in the assay with HCT-116, in the assay on KM12 and in the assay on MDA-MB-231 was > 100 µM (inactive) in each case. The GI50 with MDA-N, in the assay on MOLT-4, in the assay on NCI-H23, in the assay with OVCAR-4, in the assay on SF-268 and in the assay with SF-295 was > 100 µM (inactive) in each case. Moreover, the GI50 in the assay with SF-539 is > 100 µM (inactive); in the assay with SK-MEL-5, > 100 µM (inactive); with SNB-19 it was > 100 µM (inactive); in the assay with SR, 84.9 µM (inactive); in the assay on UACC-62, > 100 µM (inactive).
With `CCCCCCOc1ccc(NC2=C(Cl)C(=O)c3ncccc3C2=O)cc1`, the GI50 is > 10 µM (inactive) in the assay with A498; 1.16 µM (inactive) in the assay with HCT-116; 1.33 µM (inactive) in the assay with KM12; 1.52 µM (inactive) with MDA-N; 2.24 µM (inactive) in the assay on MOLT-4; 1.97 µM (inactive) with NCI-H23. Besides, the GI50 in the assay on NCI-H460 is 1.55 µM (inactive); in the assay on PC-3 it was 1.51 µM (inactive); in the assay with SF-268, 1.97 µM (inactive); in the assay on SF-295 it was 1.96 µM (inactive); in the assay on SF-539, 1.72 µM (inactive); with SK-MEL-5, 1.54 µM (inactive). The results for the GI50 with SNB-19 and with UACC-62 were 1.97 µM (inactive) and 1.44 µM (inactive), respectively.
For `N#CCc1n[nH]c2nc(SCc3ccccc3)nc(N3CCCCC3)c12`, the GI50 in the assay with A498 is 30.5 µM (inactive); with CAKI-1, 19.9 µM (inactive); with HCC 2998, 17.5 µM (inactive); in the assay with HCT-116, 17.7 µM (inactive); in the assay with KM12, 17.7 µM (inactive); in the assay on MOLT-4 it was 20.6 µM (inactive). Besides, the GI50 with NCI-H23 was 18.5 µM (inactive); in the assay on NCI-H460, 19.6 µM (inactive); in the assay on OVCAR-4, 19.5 µM (inactive); with PC-3 it was 18.8 µM (inactive); with SF-268, 19.2 µM (inactive); in the assay with SF-295, 19.6 µM (inactive). In addition, the GI50 with SF-539 is 21.4 µM (inactive); in the assay on SK-MEL-5, 18.5 µM (inactive); with SNB-19, 18.9 µM (inactive).
Regarding `O=c1[nH]c(=O)c2c([nH]1)[nH]c1ccccc12`, the GI50 with A498 is > 100 µM (inactive); in the assay with CAKI-1 it was > 100 µM (inactive); in the assay with HCT-116, > 100 µM (inactive); with KM12, 37.8 µM (inactive); with MDA-MB-231, > 100 µM (inactive); in the assay on MDA-N it was > 100 µM (inactive). Further, the GI50 in the assay on MOLT-4 was > 100 µM (inactive); with NCI-H23 it was > 100 µM (inactive); in the assay with OVCAR-4 it was 29.3 µM (inactive); with SF-268, > 100 µM (inactive); with SF-295, > 100 µM (inactive); in the assay on SF-539, > 100 µM (inactive). In addition, the GI50 in the assay on SK-MEL-5, in the assay on SNB-19, in the assay on SR and with UACC-62 was > 100 µM (inactive) each time.
For the compound `CCC(=O)Nc1ccc(NS(=O)(=O)c2ccc(Cl)cc2)cc1`, the GI50 with A498 was > 100 µM (inactive); with CAKI-1, 91.4 µM (inactive); in the assay on HCC 2998, > 100 µM (inactive); with HCT-116, > 100 µM (inactive); in the assay with KM12, > 100 µM (inactive); in the assay on MDA-N, > 100 µM (inactive). Besides, the GI50 in the assay with MOLT-4 was 34.5 µM (inactive); in the assay on NCI-H23, > 100 µM (inactive); in the assay on NCI-H460 it was > 100 µM (inactive); with OVCAR-4 it was 53.6 µM (inactive); in the assay with PC-3, > 100 µM (inactive); with SF-268, > 100 µM (inactive). Also, the GI50 in the assay on SF-295 is 45.4 µM (inactive); with SF-539, > 100 µM (inactive); in the assay on SK-MEL-5, 47.6 µM (inactive); in the assay with SNB-19, > 100 µM (inactive); with SR it was 89.3 µM (inactive); in the assay on UACC-62, 99.3 µM (inactive).
In the case of `O=C(/C=N/O)c1c(-c2ccccc2)[nH]c(-c2ccccc2)c1-c1ccccc1`, the GI50 was 29.2 µM (inactive) with A498; 22.1 µM (inactive) in the assay with CAKI-1; 34 µM (inactive) with HCC 2998; 26.2 µM (inactive) in the assay on HCT-116; 13.6 µM (inactive) in the assay with KM12; 13.3 µM (inactive) in the assay on MDA-MB-231. In addition, the GI50 in the assay with MOLT-4 is 2.37 µM (inactive); in the assay on NCI-H23, 7.46 µM (inactive); in the assay on NCI-H460 it was 16.7 µM (inactive); in the assay on OVCAR-4, 13.6 µM (inactive); in the assay on SF-268, 19.3 µM (inactive); in the assay with SF-295, 14.3 µM (inactive). In addition, the GI50 in the assay on SF-539 is 13.2 µM (inactive); with SK-MEL-5, 16.2 µM (inactive); with SNB-19 it was 15.3 µM (inactive); in the assay with SR it was 0.0481 µM (active); in the assay with UACC-62, 15.2 µM (inactive).
For the compound `O=C(O)C1CCCCN1C(=O)Cc1c[nH]c2ccccc12` (configuration not stated), the GI50 in the assay with CAKI-1 was > 100 µM (inactive); with HCC 2998 it was > 100 µM (inactive); with HCT-116 it was > 100 µM (inactive); in the assay with KM12, > 100 µM (inactive); with MDA-MB-231 it was 29 µM (inactive); in the assay with MDA-N, > 100 µM (inactive). The GI50 in the assay with MOLT-4, in the assay with NCI-H23, with NCI-H460, in the assay on OVCAR-4, in the assay with PC-3 and in the assay on SF-268 was > 100 µM (inactive) throughout. Moreover, the GI50 with SF-295, with SF-539, in the assay with SNB-19 and in the assay with UACC-62 was > 100 µM (inactive) throughout.
As to `COc1ccc(N2C(=O)C3c4[nH]c5ccc(C)cc5c4C4CCC(c5ccccc5)CC4C3C2=O)cc1` (configuration not stated), the GI50 in the assay with A498 was 22.9 µM (inactive); in the assay on CAKI-1 it was > 33.1 µM (inactive); with HCC 2998, > 100 µM (inactive); in the assay with HCT-116, > 57.7 µM (inactive); in the assay with KM12, > 100 µM (inactive); in the assay with MDA-MB-231, 8.41 µM (inactive). For the same compound, the GI50 was 41.2 µM (inactive) with MOLT-4; 33.7 µM (inactive) with NCI-H23; 39 µM (inactive) in the assay with NCI-H460; > 32.5 µM (inactive) in the assay on OVCAR-4; > 100 µM (inactive) in the assay with PC-3; 11.8 µM (inactive) with SF-268. Further, the GI50 was 20.6 µM (inactive) with SF-295; > 100 µM (inactive) in the assay with SK-MEL-5; 14.3 µM (inactive) in the assay on SNB-19; 5.41 µM (inactive) in the assay with SR; 22.6 µM (inactive) in the assay with UACC-62.
Regarding `Cc1ccc(C)c(NC(=O)C(=O)C(c2cnc3ccc([N+](=O)[O-])cc3n2)[N+](=O)[O-])c1` (configuration not stated), the GI50 with A498 was 33.2 µM (inactive); in the assay on HCC 2998, 55.8 µM (inactive); with HCT-116, 58.6 µM (inactive); in the assay with KM12, 20.1 µM (inactive); with MDA-N, 70.6 µM (inactive); in the assay on MOLT-4, 25.9 µM (inactive). In addition, the GI50 in the assay on NCI-H23 was > 100 µM (inactive); with NCI-H460 it was 42.7 µM (inactive); in the assay with OVCAR-4 it was 17.3 µM (inactive); in the assay with PC-3 it was 52.1 µM (inactive); in the assay with SF-268, > 100 µM (inactive); in the assay with SF-295, > 100 µM (inactive). The GI50 in the assay on SF-539 is > 100 µM (inactive); in the assay on SK-MEL-5 it was 48.3 µM (inactive); with SNB-19, > 100 µM (inactive); in the assay on SR, 34.4 µM (inactive); with UACC-62 it was 64.1 µM (inactive).
With `CC(=O)N/N=C1/CC[C@@]2(C)C(=CC[C@H]3C4CCC(C(C)CCCC(C)C)[C@@]4(C)CCC32)C1(C)C` (some centres not stated), the GI50 with CAKI-1 was > 100 µM (inactive); with HCT-116, 48.8 µM (inactive); in the assay on KM12, 46.3 µM (inactive); with MDA-N, > 10 µM (inactive); in the assay with MOLT-4 it was 11 µM (inactive); in the assay with NCI-H23, 70 µM (inactive). The GI50 with NCI-H460 is 32.1 µM (inactive); with OVCAR-4, 50.5 µM (inactive); in the assay with PC-3 it was 30.1 µM (inactive); in the assay on SF-268, 63 µM (inactive); in the assay with SF-295 it was 22.3 µM (inactive); with SK-MEL-5, 37.4 µM (inactive). The GI50 with SNB-19 was 75.3 µM (inactive); in the assay on SR, 50.9 µM (inactive); in the assay on UACC-62, > 100 µM (inactive).
